Reference: US20110207697A1, “XANTHOHUMOL COMPOSITIONS AND METHODS FOR TREATING SKIN DISEASES OR DISORDERS” (Betal, LLC, priority 2008, published 2011)
In brackets after ≈: the same amount, converted by molar mass.

Tests used:
[1] = Hydrophilic oxygen radical absorbance capacity (ORAC-H); settings: water-soluble antioxidant capacity; expressed as mmol TE/g; — = No activity detected
Excerpt: Thus the ORAC method has become a widely used method for assessing antioxidant capacity in biological samples and foods. However, because of its inability to measure both hydrophilic and lipophilic antioxidants, the method has its limitations. An ORAC method for lipophilic antioxidants was further developed and validated using fluorescein as the fluorescent probe (Prior et al. 2003 J. Agric. Food Chem. 51: 3273-3279). […] In the present work, the ORAC value is expressed as the sum of values of both the water-soluble and fat-soluble parts. […] Both hydrophilic and lipophilic oxygen radical absorbance capacity (ORAC) assays were carried out at Brunswick Laboratory (Wareham, Mass.) based on the modified ORACfl method reported by Ou et al. (2001 J. Agric. Food Chem. 49: 4619-4626, 2002 J. Agr. Food Chem. 50: 3122-3128). Trolox, a water-soluble vitamin E analog, was used as the calibration standard. The data are expressed as mmole of Trolox equivalents per gram (mmol TE/g). […] Hydroxyl radical ORAC (HOR-AC) is expressed as mmole caffeic acid equivalent per gram (mmol CAE/g). […] The peroxyl nitrite ORAC (NORAC) result is expressed as mmol TE/g. […] Radical-scavenging activity was measured by the change in absorbance at 517 nm with the DPPH result expressed as mmol TE/g. […] The FRAP result is expressed as mmol TE/g (Ou et al. 2002b).

[2] = molecular target: T1, interstitial collagenase (MMP-1) (Homo sapiens, UniProt P03956); assay: Anticollagenase assay; format: biochemical; settings: mean of three measurements
T1 construct: host or cells: mammalian cells
T1 sequence (P03956 100-469): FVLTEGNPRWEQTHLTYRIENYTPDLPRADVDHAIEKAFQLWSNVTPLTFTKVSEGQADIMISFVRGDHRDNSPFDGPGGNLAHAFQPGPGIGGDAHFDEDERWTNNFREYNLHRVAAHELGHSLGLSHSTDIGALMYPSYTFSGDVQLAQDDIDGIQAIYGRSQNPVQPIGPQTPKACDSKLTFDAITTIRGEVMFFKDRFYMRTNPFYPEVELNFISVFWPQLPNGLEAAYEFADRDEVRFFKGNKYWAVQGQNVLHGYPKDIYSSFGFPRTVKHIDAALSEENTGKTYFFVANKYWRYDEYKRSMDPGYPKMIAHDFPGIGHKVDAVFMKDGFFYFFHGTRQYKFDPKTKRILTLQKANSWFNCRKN
Procedure: Human recombinant matrix metalloproteinase-MMP-1) pro-enzyme, expressed in mammalian cells, and human nutrophil MMP-8 pro-enzyme were activated with 4-aminophenylmercuric acetate for 60 min 37 1 C, respectively (Knight et al. 1992 FEBS Lett. 296: 263-266). Hop components and vehicle were preincubated with 5 nM MMP- and 6 nM MMP-8 active enzymes in a modified MOPS buffer, pH 7.2, for 60 minutes at 37 C. The reaction was initiated by addition of […] Mca-Pro-Leu-Gly-Leu-Dpa-Ala-Arg for another 120-minute incubation period. The determination of the amount of Mca-Pro-Leu-Gly formed was read spectrofluorimetrically at 340/400 nm. Tissue inhibitors of metalloproteinase TIMP-1 and TIMP-2 were used as positive controls (Olson et 1997 J. Biol. Chem. 272: 29975-29983).

S. pyogenes (ATCC 14289) = assay: Antimicrobial susceptibility, broth dilution (MIC/MBC); format: cell-based, Streptococcus pyogenes
Procedure: The antibacterial effects of seven hops components against five different strains of bacteria involved in primary or secondary skin and soft tissue infections was evaluated, with broth dilution methods. […] Antimicrobial susceptibility testing was performed using a broth dilution method. Gentamicin or ampicillin was used as a control to verify the methodology. A stock solution (20 mg/ml) of the test substance (or vehicle control) was prepared in dimethyl sulfoxide. Serial dilution was done in microwell plates. Reinforced Clostridial Medium was used for P. acnes (ATCC 6919). Three hundreds […] of the test substance was added to the test tube containing P. acnes (10^5 CFU/ml) in 2.7 ml of cultures grown under anaerobic conditions. Mueller-Hinston Broth suitable for culturing S. epidermidis (ATCC 12228), K. rhizophila (formerly M. luteus) (ATCC 9341), and S. aureus (ATCC […]), and Brain Heart Infusion Broth suitable for culturing S. pyogenes (ATCC 14289) were used. A total of […] of the test substance was added to the test tube containing the other microorganisms (10^5CFU/ml) in 0.9 ml of cultures grown under controlled conditions. […] Samples from those tubes that scored positive was plated onto an agar plate and incubated under controlled conditions.

Structure (SMILES): COc1cc(O)c(CC=C(C)C)c(O)c1C(=O)/C=C/c1ccc(O)cc1 [Xanthohumol (7), 3′-[3,3-dimethylallyl]-2′,4′,4-trihydroxy-6′-methoxychalcone]
- ORAC-H (Trolox equivalent) [1]: 2.1 Trolox equivalent
- Inhibitory ratio (%) MMP-1 ([2]; 10 μg/mL): 25%
- Inhibitory ratio (%) MMP-1 ([2]; 30 μg/mL): 65%
- Inhibitory ratio (%) MMP-1 ([2]; 100 μg/mL): 91%
- MBC (S. pyogenes (ATCC 14289)): [3] g/mL
- MIC (S. pyogenes (ATCC 14289); 1 day): 1 µg/mL (≈ 2.82 µM)
